Values joined by “and” are separate entries in the source; they are usually repeats but may differ in a detail not shown here. Identical values can stand only once.
Assays:
Type in all cases: cell-based, human
CFU-GEMM = test: Colony forming assay, bone marrow CD34+ cells in MethoCult
Experimental: (§1) Experimental design: human bone marrow (BM) CD34+ cells were used to evaluate the potential for BM toxicity induced by Compound 1. In order to test the effects of Compound 1 on the functionality of hematopoietic progenitors, colony forming assays were done by seeding BM CD34+ cells on MethoCult medium. Cells were seeded directly in MethoCult with Compound 1 or cultured in liquid medium with Compound 1 for 2, 4, or 8 hours and then seeded in compound-free MethoCult to evaluate the effect of different exposure times. Early apoptosis induced by Compound 1 on HSC was analyzed by flow cytometry.
(§2) Results. Colony forming units (CFU) of common granulocyte/erythrocyte/monocyte/megakaryocyte (CFU-GEMM), CFU of granulocyte/monocyte (CFU-GM), burst forming unit of erythrocytes (BFU-E), and CFU of erythrocytes (CFU-E) in cultures exposed to Compound 1 or DMSO were scored on STEMvision.
(§3) Bone marrow CD34+ cells from normal donors were incubated with Compound 1 in MethoCult medium. Colony numbers for CFU-GM and BFU-E progenitors were counted using STEMVision automatic colony counting instrument and software and normalized to the colony number of the DMSO control. Results plotted as percentage of DMSO control vs concentration of Compound 1 were used to determine IC50 values. Data are shown as mean standard error of the mean of n=3 technical replicates. Donors were HD10, HD14, HD18, and HD19.

CFU-E = test: as above
Experimental: as §1, §2, §3

HNT-34 cells and PBMCs = test: Flow cytometry caspase 3/7 assay; settings: HNT-34 cells over non-pre-activated PBMCs; 0.1 μM Compound 1; 72 hours
Experimental: Cell Apoptosis Assays: The ability of Compound 1 to induce apoptosis was assessed in selected AML cell lines and healthy PBMCs at the time points and compound concentrations indicated. For Annexin V/7-AAD readout by flow cytometry, AML cell lines were plated into flat bottom 96-well plates (BD Falcon) at a seeding density of 0.1 to 0.3×10^6 cells per mL in 200 μL complete media. Compound 1 was dispensed onto the plates and the cells were incubated for the times indicated. For frozen PBMCs, cells were thawed as previously described and plated at a seeding density of 1×10^6 cells per mL in 200 μL on Corning® BioCoat™ T-Cell Activation Anti-Human CD3 96-well plates (Corning Inc., Corning, N.Y.). Compound 1 was dispensed onto the plates and the cells were incubated for the times indicated. […] One hundred microliters of Annexin V/7-AAD buffer was added per well and the cells incubated for 15 minutes before being analyzed using the Attune Flow Cytometer (Life Technologies, Carlsbad, Calif.). For caspase 3/7 activity, the remaining 100 μL was incubated with CellEvent™ Caspase-3/7 Green ReadyProbes® Reagent (1:1000 dilution; Molecular Probes) for 15 minutes before being analyzed using the Attune Flow Cytometer. […]
The effects of Compound 1 in healthy PBMCs were also assessed. Compound 1 was added to PBMC s from one donor at time zero and assessed at 72 hours. […]

[1] = tested on: Bone marrow mononuclear cells (BMMCs) from high risk MDS patients; test: MDS intracellular flow cytometry, active Caspase 3; settings: 24 hours exposure
Experimental: Methods. The effect of Compound 1 on high risk MDS samples was measured in an in vitro liquid culture as well as by colony assays in order to better define its effect on stem/progenitor cells. Bone marrow mononuclear cells (BMMCs) from high risk MDS patients were cultured in vitro in CellGro medium (GellGenix) supplemented with hLDL (40 μg/mL), SCF (50 ng/mL), FLT3 […] (50 ng/mL), IL-3 (10 ng/mL), IL-6 (25 ng/mL) and TPO (100 ng/mL), all from Peprotech. During culture, cells were exposed to different concentrations of Compound 1 (37, 111, 333 and 1000 nM) or DMSO control. After 24 hours, cells were washed twice to remove compound and maintained in culture up to one week, performing viable cell counting on days 1, 3 and 7. Just after compound washout, […] per condition were collected for colony forming assays and another […] were stained for intracellular flow cytometry.
For intracellular flow cytometry measurement of apoptosis cells were fixed in 1.6% paraformaldehyde, permeabilized in ice cold methanol and stained using a FITC-conjugated anti-active Caspase 3 antibody (Becton Dickinson). A FACSCanto II flow cytometer (Becton Dickinson) was used for flow cytometry data acquisition. Flow cytometry standard (FCS) files were analyzed using Infinicyt software (Cytognos).

[2] = Donor HD10, 7.4 nM Compound 1, replicate counts
[3] = Donor HD10, 22.2 nM Compound 1, replicate counts
[4] = Donor HD10, 67 nM Compound 1, replicate counts
[5] = Donor HD10, 200 nM Compound 1, replicate counts
[6] = Donor HD10, 600 nM Compound 1, replicate counts
[7] = Donor HD14, 7.4 nM Compound 1, replicate counts
[8] = Donor HD14, 22.2 nM Compound 1, replicate counts
[9] = Donor HD14, 67 nM Compound 1, replicate counts
[10] = Donor HD14, 200 nM Compound 1, replicate counts
[11] = Donor HD14, 600 nM Compound 1, replicate counts
[12] = Donor HD18, 7.4 nM Compound 1, replicate counts
[13] = Donor HD18, 22.2 nM Compound 1, replicate counts
[14] = Donor HD18, 67 nM Compound 1, replicate counts
[15] = Donor HD18, 200 nM Compound 1, replicate counts
[16] = Donor HD18, 600 nM Compound 1, replicate counts
[17] = Donor HD19, 7.4 nM Compound 1, replicate counts
[18] = Donor HD19, 22.2 nM Compound 1, replicate counts
[19] = Donor HD19, 67 nM Compound 1, replicate counts
[20] = Donor HD19, 200 nM Compound 1, replicate counts
[21] = Donor HD19, 600 nM Compound 1, replicate counts

## O=C1CCC(N2Cc3cc(CNC(=O)C(F)(F)c4ccc(Cl)cc4)ccc3C2=O)C(=O)N1 (stereo not drawn) [Compound 1, 2-(4-chlorophenyl)-N-((2-(2,6-dioxopiperidin-3-yl)-1-oxoisoindolin-5-yl)methyl)-2,2-difluoroacetamide]
CFU-GEMM; [2]
  Colony Number CFU-GEMM: 4 and 2
CFU-GEMM; [3]
  Colony Number CFU-GEMM: 2 and 0
CFU-GEMM; [4]
  Colony Number CFU-GEMM: 5 and 1
CFU-GEMM; [5]
  Colony Number CFU-GEMM: 0
CFU-GEMM; [6]
  Colony Number CFU-GEMM: 0
CFU-GEMM; [7]
  Colony Number CFU-GEMM: 0
CFU-GEMM; [8]
  Colony Number CFU-GEMM: 0
CFU-GEMM; [9]
  Colony Number CFU-GEMM: 0
CFU-GEMM; [10]
  Colony Number CFU-GEMM: 0
CFU-GEMM; [11]
  Colony Number CFU-GEMM: 0
CFU-GEMM; [12]
  Colony Number CFU-GEMM: 2 and 4
CFU-GEMM; [13]
  Colony Number CFU-GEMM: 1
CFU-GEMM; [14]
  Colony Number CFU-GEMM: 0
CFU-GEMM; [15]
  Colony Number CFU-GEMM: 0
CFU-GEMM; [16]
  Colony Number CFU-GEMM: 0
CFU-GEMM; [17]
  Colony Number CFU-GEMM: 4
CFU-GEMM; [18]
  Colony Number CFU-GEMM: 0 and 1
CFU-GEMM; [19]
  Colony Number CFU-GEMM: 0 and 1
CFU-GEMM; [20]
  Colony Number CFU-GEMM: 0
CFU-GEMM; [21]
  Colony Number CFU-GEMM: 0
CFU-E; [2]
  Colony Number CFU-E: 2
CFU-E; [3]
  Colony Number CFU-E: 0
CFU-E; [4]
  Colony Number CFU-E: 0
CFU-E; [5]
  Colony Number CFU-E: 1 and 3
CFU-E; [6]
  Colony Number CFU-E: 0
CFU-E; [7]
  Colony Number CFU-E: 6 and 0
CFU-E; [8]
  Colony Number CFU-E: 7 and 0
CFU-E; [9]
  Colony Number CFU-E: 4
CFU-E; [10]
  Colony Number CFU-E: 1 and 2
CFU-E; [11]
  Colony Number CFU-E: 2 and 0
CFU-E; [12]
  Colony Number CFU-E: 0 and 2
CFU-E; [13]
  Colony Number CFU-E: 7 and 1
CFU-E; [14]
  Colony Number CFU-E: 3 and 0
CFU-E; [15]
  Colony Number CFU-E: 3 and 2
CFU-E; [16]
  Colony Number CFU-E: 1
CFU-E; [17]
  Colony Number CFU-E: 9 and 4
CFU-E; [18]
  Colony Number CFU-E: 4 and 5
CFU-E; [19]
  Colony Number CFU-E: 6 and 3
CFU-E; [20]
  Colony Number CFU-E: 3 and 1
CFU-E; [21]
  Colony Number CFU-E: 1
HNT-34 cells and PBMCs
  difference in elevation of caspase 3/7 activity: ~3 fold
[1]
  caspase 3 activation: induction of apoptosis

Source: patent publication US11590117B2, “Treatment of a hematologic malignancy with 2-(4-chlorophenyl)-n-((2-(2,6-dioxopiperidin-3-yl)-1-oxoisoindolin-5-yl)methyl)-2,2-difluoroacetamide” (priority 2016, dated 2023)
